Measurements from ChEMBL document CHEMBL3593202, “Design, Synthesis, and Characterization of 3-(Benzylidene)indolin-2-one Derivatives as Ligands for α-Synuclein Fibrils” (J Med Chem, 2015).
The source made the active and inactive calls. The calls are words filed in the database; no cut-off is given here.

How the values were obtained:
Alpha-synuclein [1] = target: T1, Alpha-synuclein (Homo sapiens, UniProt P37840); test: Displacement of Thio-T from recombinant alpha-synuclein (unknown origin) expressed in Escherichia coli after 1.5 hrs by fluorescence assay
[2] = target: T2, Microtubule-associated protein tau (Homo sapiens, UniProt P10636); test: Displacement of Thio-T from human recombinant tau (243 to 375) expressed in Escherichia coli BL21(DE3)RIL after 1.5 hrs by fluorescence assay
T2 sequence (P10636 whole entry): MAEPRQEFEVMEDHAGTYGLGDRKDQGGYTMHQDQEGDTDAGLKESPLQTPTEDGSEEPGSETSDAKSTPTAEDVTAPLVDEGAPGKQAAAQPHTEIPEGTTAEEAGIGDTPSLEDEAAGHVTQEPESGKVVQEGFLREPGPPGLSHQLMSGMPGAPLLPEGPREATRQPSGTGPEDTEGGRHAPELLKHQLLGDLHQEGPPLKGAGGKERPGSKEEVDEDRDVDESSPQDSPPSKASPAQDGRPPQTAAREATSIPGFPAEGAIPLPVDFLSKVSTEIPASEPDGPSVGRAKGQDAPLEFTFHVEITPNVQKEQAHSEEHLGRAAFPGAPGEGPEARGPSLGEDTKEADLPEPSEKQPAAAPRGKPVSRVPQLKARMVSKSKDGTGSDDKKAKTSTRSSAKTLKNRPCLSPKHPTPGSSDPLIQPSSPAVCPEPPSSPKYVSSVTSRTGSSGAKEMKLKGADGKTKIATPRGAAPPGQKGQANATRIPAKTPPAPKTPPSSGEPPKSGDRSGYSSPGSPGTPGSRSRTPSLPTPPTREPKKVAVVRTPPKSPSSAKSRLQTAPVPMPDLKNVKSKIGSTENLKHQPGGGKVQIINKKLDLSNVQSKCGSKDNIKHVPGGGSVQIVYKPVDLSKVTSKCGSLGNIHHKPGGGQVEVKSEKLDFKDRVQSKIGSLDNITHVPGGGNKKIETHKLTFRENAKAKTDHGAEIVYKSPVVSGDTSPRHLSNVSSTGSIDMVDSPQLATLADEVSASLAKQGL

[3] = target: T3, Amyloid-beta precursor protein (Homo sapiens, UniProt P05067); test: Displacement of Thio-T from synthetic amyloid beta (1 to 42) (unknown origin) after 1.5 hrs by fluorescence assay
T3 sequence (P05067 whole entry): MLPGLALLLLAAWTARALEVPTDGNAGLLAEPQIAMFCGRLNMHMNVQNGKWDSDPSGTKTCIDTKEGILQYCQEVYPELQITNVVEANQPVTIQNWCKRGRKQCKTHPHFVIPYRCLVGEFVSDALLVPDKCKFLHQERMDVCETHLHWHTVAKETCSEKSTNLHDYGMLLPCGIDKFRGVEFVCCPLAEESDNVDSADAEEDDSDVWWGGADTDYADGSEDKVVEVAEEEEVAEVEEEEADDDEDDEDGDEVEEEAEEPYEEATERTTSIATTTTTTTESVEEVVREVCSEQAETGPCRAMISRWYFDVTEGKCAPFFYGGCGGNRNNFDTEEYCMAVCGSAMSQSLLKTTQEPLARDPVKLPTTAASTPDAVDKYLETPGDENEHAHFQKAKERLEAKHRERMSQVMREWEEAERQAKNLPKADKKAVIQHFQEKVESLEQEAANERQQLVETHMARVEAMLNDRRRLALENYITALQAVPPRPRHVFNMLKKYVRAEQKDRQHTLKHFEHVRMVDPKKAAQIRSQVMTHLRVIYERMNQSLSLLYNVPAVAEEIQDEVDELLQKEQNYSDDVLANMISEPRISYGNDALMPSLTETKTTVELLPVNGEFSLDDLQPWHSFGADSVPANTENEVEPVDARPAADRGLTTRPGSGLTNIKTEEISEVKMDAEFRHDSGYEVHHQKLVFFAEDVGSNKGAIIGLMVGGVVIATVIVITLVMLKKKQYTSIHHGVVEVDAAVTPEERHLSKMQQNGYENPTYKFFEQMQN

[4] = Lipophilicity, log P of the compound; type: physicochemical; conditions: octanol/water
Alpha-synuclein [5] = target: T1, Alpha-synuclein; test: Binding affinity to recombinant alpha-synuclein (unknown origin) expressed in Escherichia coli after 1 hr by scintillation counting
[6] = target: T3, Amyloid-beta precursor protein; test: Binding affinity amyloid beta (1 to 42) (unknown origin) expressed in Escherichia coli after 1 hr by scintillation counting
[7] = target: T2, Microtubule-associated protein tau; test: Binding affinity human recombinant tau (243 to 375) expressed in Escherichia coli BL21(DE3)RIL after 1 hr by scintillation counting
[8] = target: T3, Amyloid-beta precursor protein; test: Binding affinity to amyloid beta in alzheimer's diseased human brain tissue at 5 uM after 20 mins by fluorescence microscopic analysis

Activity [8]	Compound	Ki (Alpha-synuclein [1]) [nM]	Ki [2] [nM]	Ki [3] [nM]	logP [4]	Kd (Alpha-synuclein [5]) [nM]	Kd [6] [nM]	Kd [7] [nM]
–	COc1ccc(/C=C/C=C2\C(=O)N(Cc3ccccc3)c3ccccc32)cc1 (mixture of isomers)	72.5	718	741	–	–	–	–
–	CN(C)c1ccc(/C=C2\C(=O)Nc3ccc(O)cc32)cc1 (mixture of isomers)	407	212	94.8	–	–	–	–
–	CCOC(=O)N1C(=O)/C(=C\C=C\c2ccc(N(C)C)cc2)c2ccccc21 (mixture of isomers)	45.3	263	84	–	–	–	–
–	COc1ccc(CN2C(=O)/C(=C\C=C\c3ccc(N(C)C)cc3)c3ccccc32)cc1 (mixture of isomers)	54.6	240	130	–	–	–	–
–	O=C1/C(=C\C=C\c2ccc([N+](=O)[O-])cc2)c2ccccc2N1Cc1ccc(OCCF)cc1	2.1	80.1	142	4.18	–	–	–
–	COc1cccc(CN2C(=O)/C(=C/C=C/c3ccc([N+](=O)[O-])cc3)c3ccccc32)c1	64.7	355	265	–	–	–	–
–	COc1ccc(/C=C/C=C2\C(=O)Nc3ccccc32)cc1 (mixture of isomers)	61.1	169	126	–	–	–	–
–	CN(C)c1ccc(/C=C/C=C2\C(=O)N(Cc3ccccc3)c3ccccc32)cc1 (mixture of isomers)	40.9	374	358	–	–	–	–
–	O=C1/C(=C/C=C/c2ccc([N+](=O)[O-])cc2)c2ccccc2N1Cc1ccc(OCCF)cc1	76.1	456	125	–	–	–	–
–	COc1ccc(CN2C(=O)/C(=C\c3ccc(N(C)C)cc3)c3cccnc32)cc1 (mixture of isomers)	79.5	853	113	–	–	–	–
–	CN(C)c1ccc(/C=C/C=C2\C(=O)Nc3ncccc32)cc1 (mixture of isomers)	11.5	35.1	15.3	–	–	–	–
–	O=C1/C(=C\C=C\c2ccc([N+](=O)[O-])cc2)c2ccccc2N1Cc1ccc(OCC[18F])cc1	–	–	–	–	8.9	271	50
–	O=C1Nc2ccccc2/C1=C/C=C/c1ccccc1 (mixture of isomers)	207	522	267	–	–	–	–
–	CN(C)c1ccc(/C=C/C=C2\C(=O)N(c3ccccc3)c3ccccc32)cc1 (mixture of isomers)	68.1	465	287	–	–	–	–
–	COc1ccc(CN2C(=O)/C(=C\C=C\c3ccc([N+](=O)[O-])cc3)c3ccccc32)cc1	12.9	72.4	131	–	–	–	–
–	O=C1Nc2ccccc2/C1=C/c1ccc([N+](=O)[O-])cc1	347	362	325	–	–	–	–
–	O=C1/C(=C\c2ccc([N+](=O)[O-])cc2)c2ccccc2N1Cc1ccccc1	483	1760	460	–	–	–	–
–	Nc1ccc(/C=C/C=C2\C(=O)Nc3ccccc32)cc1 (mixture of isomers)	44.8	38.3	50.8	–	–	–	–
–	COc1ccc(CN2C(=O)/C(=C/C=C/c3ccc([N+](=O)[O-])cc3)c3ccccc32)cc1OC	53.3	630	130	–	–	–	–
–	O=C1Nc2ccccc2/C1=C\C=C\c1ccc([N+](=O)[O-])cc1	211	209	60	–	–	–	–
–	CN(C)c1ccc(/C=C/C=C2\C(=O)Nc3ccc(O)cc32)cc1 (mixture of isomers)	54	48	37.1	–	–	–	–
–	CN(C)c1ccc(/C=C/C=C2\C(=O)N(Cc3ccncc3)c3ccccc32)cc1	92	188	–	–	–	–	–
–	CN(C)c1ccc(/C=C2\C(=O)N(c3ccccc3)c3ccccc32)cc1 (mixture of isomers)	290	790	179	–	–	–	–

Activity [8]	Compound	Ki (Alpha-synuclein [1]) [nM]	Ki [2] [nM]	Ki [3] [nM]	logP [4]	Kd (Alpha-synuclein [5]) [nM]	Kd [6] [nM]	Kd [7] [nM]
–	O=C1/C(=C\C=C\c2ccccc2)c2ccccc2N1Cc1ccccc1 (mixture of isomers)	227	682	703	–	–	–	–
–	CN(C)c1ccc(/C=C2\C(=O)N(Cc3ccncc3)c3ccccc32)cc1	150	364	–	–	–	–	–
–	CN(C)c1ccc(/C=C2\C(=O)N(Cc3ccccc3)c3ncccc32)cc1 (mixture of isomers)	350	859	190	–	–	–	–
–	O=C1/C(=C/c2ccc([N+](=O)[O-])cc2)c2ccccc2N1Cc1ccccc1	959	1410	695	–	–	–	–
–	CN(C)c1ccc(/C=C/C=C2\C(=O)N(Cc3ccc(N)cc3)c3ccccc32)cc1 (mixture of isomers)	43.6	131	98.9	–	–	–	–
–	CN(C)c1ccc(/C=C/C=C2\C(=O)N(C)c3ccccc32)cc1 (mixture of isomers)	63.7	229	56	–	–	–	–
–	O=C1/C(=C/C=C/c2ccc([N+](=O)[O-])cc2)c2ccccc2N1Cc1ccccc1	193	590	235	–	–	–	–
–	COc1ccc(CN2C(=O)/C(=C\C=C\c3ccc([N+](=O)[O-])cc3)c3ccccc32)cc1OC	3.5	152	73.6	–	–	–	–
–	CN(C)c1ccc(/C=C2\C(=O)N(Cc3ccccc3)c3ccccc32)cc1	144	798	260	–	–	–	–
–	COc1cccc(CN2C(=O)/C(=C\C=C\c3ccc([N+](=O)[O-])cc3)c3ccccc32)c1	3.8	229	110	–	–	–	–
–	O=C1/C(=C\C=C\c2ccc([N+](=O)[O-])cc2)c2ccccc2N1Cc1ccccc1	25	121	214	–	–	–	–
–	O=C1Nc2ccccc2/C1=C\c1ccc([N+](=O)[O-])cc1	622	528	439	–	–	–	–
–	CN(C)c1ccc(/C=C/C=C2\C(=O)N(Cc3ccc([N+](=O)[O-])cc3)c3ccccc32)cc1 (mixture of isomers)	4.2	90	92.4	–	–	–	–
–	COc1ccc(CN2C(=O)/C(=C\C=C\c3ccc(N(C)C)cc3)c3cccnc32)cc1 (mixture of isomers)	29.8	204	107	–	–	–	–
–	COc1ccc(CN2C(=O)/C(=C\c3ccc(N(C)C)cc3)c3ccccc32)cc1 (mixture of isomers)	114	432	251	–	–	–	–
–	CN(C)c1ccc(/C=C2\C(=O)Nc3ncccc32)cc1 (mixture of isomers)	124	191	40	–	–	–	–
–	CCOC(=O)N1C(=O)/C(=C\c2ccc(N(C)C)cc2)c2ccccc21 (mixture of isomers)	343	1120	140	–	–	–	–
–	O=C1Nc2ccccc2/C1=C/C=C/c1ccc([N+](=O)[O-])cc1	14.6	27.1	36.2	–	–	–	–
–	COc1ccc(CN2C(=O)/C(=C/C=C/c3ccc([N+](=O)[O-])cc3)c3ccccc32)cc1	81.9	318	138	–	–	–	–
–	CN(C)c1ccc(/C=C2\C(=O)N(C)c3ccccc32)cc1 (mixture of isomers)	508	618	155	–	–	–	–
–	CN(C)c1ccc(/C=C2\C(=O)Nc3ccccc32)cc1 (mixture of isomers)	84.4	261	91.6	–	–	–	–
Active	CN(C)c1ccc(/C=C/C=C2\C(=O)Nc3ccccc32)cc1 (mixture of isomers)	40.7	53.7	27.6	–	–	–	–
–	CN(C)c1ccc(/C=C/C=C2\C(=O)N(Cc3ccccc3)c3ncccc32)cc1 (mixture of isomers)	68.3	257	85.1	–	–	–	–
